Results: patent publication US9308194B2, “Indanyloxyphenylcyclopropanecarboxylic acids” (Boehringer Ingelheim International GmbH, priority 2013, dated 2016)

These compounds were tested against human GPR40 receptor (Homo sapiens, UniProt O14842) (assay: IP1 accumulation measurements using the IPOne assay system in 1321N1 cells stably expressing human GPR40 receptor). Settings: 1321N1 cells expressing human GPR40, 1 hour stimulation at 37° C., Table 2.
Sequence of human GPR40 receptor (O14842 whole entry): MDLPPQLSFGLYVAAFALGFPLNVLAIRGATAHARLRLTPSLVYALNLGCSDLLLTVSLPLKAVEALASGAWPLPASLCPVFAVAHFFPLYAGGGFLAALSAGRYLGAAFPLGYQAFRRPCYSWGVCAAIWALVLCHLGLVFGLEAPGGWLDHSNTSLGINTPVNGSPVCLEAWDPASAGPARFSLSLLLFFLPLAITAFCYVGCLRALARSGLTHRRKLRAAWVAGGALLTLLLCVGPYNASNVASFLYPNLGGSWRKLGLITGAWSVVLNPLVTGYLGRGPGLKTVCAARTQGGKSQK
Format: cell-based
Method: (§1) IP1 is assayed according to the Manufacturer's description (Cisbio Bioassays, France). In brief, the assay is started by substitution of the culture medium by stimulation buffer (Hepes 10 mM, CaCl2 1 mM, MgCl2 0.5 mM, KCl 4.2 mM, NaCl 146 mM and glucose 5.5 mM, pH 7.4) without LiCl or with […]. Cells are stimulated for 1 hour at 37° C., 5 or 10% CO2 by addition of the compounds that are diluted in stimulation buffer containing LiCl yielding a final LiCl concentration of 50 mM. Assays are stopped by adding HTRF-conjugates (IP1-d2 and Anti-IP1 cryptate Tb) and lysis buffer, provided by the manufacturer. After an incubation time of 1 hour at room temperature plates are measured using an EnVision™, Perkin Elmer. The obtained fluorescence ratios at […] are then used to calculate the pEC50 values using GraphPad Prism 5 (Graphpad Software Inc, USA) or Assay Explorer 3.3 Software (Accelrys, Inc.) by interpolation using an IP1 reference curve and subsequent sigmoidal curve fitting allowing for a variable hill slope.
as §1, with “IP1 accumulation measurements using the IPOne assay system—1321N1 cells stably expressing human GPR40 receptor (Euroscreen, Belgium) are seeded 24 h before the assay in black clear-bottom collagen-coated or white 384-well plates in culture medium containing 10% FCS, 1% Na-Pyruvate and 400 μg/mL G418. IP1 is” for “IP1 is”
Compound `O=C(O)[C@H]1C[C@@H]1c1ccc(O[C@@H]2CCc3c(Oc4ccc(OCc5ccccc5)cc4)ccc(F)c32)cc1` [Example 1] has an EC50 of 6 nM. In the case of `O=C(O)[C@H]1C[C@@H]1c1ccc(O[C@@H]2CCc3c(Oc4ccc(O)cc4)ccc(F)c32)cc1` [Example 2], the EC50 is reported as 6 nM. For `O=C(O)[C@H]1C[C@@H]1c1ccc(O[C@@H]2CCc3c(Oc4ccc(OCc5ccccc5)c(F)c4)ccc(F)c32)cc1` [Example 3], the EC50 was 5 nM. For `CC(C)(O)CCOc1ccc(Oc2ccc(F)c3c2CC[C@H]3Oc2ccc([C@H]3C[C@@H]3C(=O)O)cc2)cc1` [Example 4], the EC50 was 5 nM. `O=C(O)[C@H]1C[C@@H]1c1ccc(O[C@@H]2CCc3c(Oc4ccc(OCC5(O)CCOCC5)cc4)ccc(F)c32)cc1` [Example 5] gave an EC50 of 7 nM. In the case of `O=C(O)[C@H]1C[C@@H]1c1ccc(O[C@@H]2CCc3c(Oc4ccc(OC5CCOCC5)cc4)ccc(F)c32)cc1` [Example 6], the EC50 is reported as 2 nM. For `CS(=O)(=O)CCCOc1ccc(Oc2ccc(F)c3c2CC[C@H]3Oc2ccc([C@H]3C[C@@H]3C(=O)O)cc2)cc1` [Example 7], the EC50 was 4 nM. With `COCCOc1ccc(Oc2ccc(F)c3c2CC[C@H]3Oc2ccc([C@H]3C[C@@H]3C(=O)O)cc2)cc1` [Example 8] the EC50 was 5 nM. For `CC(C)(O)COc1ccc(Oc2ccc(F)c3c2CC[C@H]3Oc2ccc([C@H]3C[C@@H]3C(=O)O)cc2)cc1` [Example 9], the EC50 was 5 nM. `O=C(O)[C@H]1C[C@@H]1c1ccc(O[C@@H]2CCc3c(Oc4ccc(OCCO)cc4)ccc(F)c32)cc1` [Example 10] gave an EC50 of 7 nM. In the case of `CC(C)(O)CCOc1ccc(Oc2ccc(F)c3c2CC[C@H]3Oc2ccc([C@H]3C[C@@H]3C(=O)O)cc2)cc1F` [Example 11], the EC50 is reported as 3 nM. Work on `O=C(O)[C@H]1C[C@@H]1c1ccc(O[C@@H]2CCc3c(Oc4ccc(OC5CCOCC5)c(F)c4)ccc(F)c32)cc1` [Example 12] yielded an EC50 of 4 nM. With `COCCOc1ccc(Oc2ccc(F)c3c2CC[C@H]3Oc2ccc([C@H]3C[C@@H]3C(=O)O)cc2)cc1F` [Example 13] the EC50 was 8 nM. `O=C(O)[C@H]1C[C@@H]1c1ccc(O[C@@H]2CCc3c(Oc4ccc(OCCN5CCOCC5)cc4)ccc(F)c32)cc1` [Example 14] showed an EC50 of 3 nM. Compound `CS(=O)(=O)CCCOc1ccc(Oc2ccc(F)c3c2CC[C@H]3Oc2ccc([C@H]3C[C@@H]3C(=O)O)cc2)cc1F` [Example 15] has an EC50 of 8 nM. With `O=C(O)c1ccc(Oc2ccc(F)c3c2CC[C@H]3Oc2ccc([C@H]3C[C@@H]3C(=O)O)cc2)cc1` [Example 16] the EC50 was 92 nM. `CNC(=O)c1ccc(Oc2ccc(F)c3c2CC[C@H]3Oc2ccc([C@H]3C[C@@H]3C(=O)O)cc2)cc1` [Example 17] was tested, and the EC50 was 9 nM. For `O=C(NCC1CC1)c1ccc(Oc2ccc(F)c3c2CC[C@H]3Oc2ccc([C@H]3C[C@@H]3C(=O)O)cc2)cc1` [Example 18], the EC50 was 6 nM. In the case of `CN(CCO)C(=O)c1ccc(Oc2ccc(F)c3c2CC[C@H]3Oc2ccc([C@H]3C[C@@H]3C(=O)O)cc2)cc1` [Example 19], the EC50 is reported as 48 nM. `CN(C)C(=O)c1ccc(Oc2ccc(F)c3c2CC[C@H]3Oc2ccc([C@H]3C[C@@H]3C(=O)O)cc2)cc1` [Example 20] showed an EC50 of 11 nM. `O=C(NC1CCOCC1)c1ccc(Oc2ccc(F)c3c2CC[C@H]3Oc2ccc([C@H]3C[C@@H]3C(=O)O)cc2)cc1` [Example 21] was tested, and the EC50 was 3 nM. Work on `O=C(O)[C@H]1C[C@@H]1c1ccc(O[C@@H]2CCc3c(Oc4ccc(C(=O)N5CCOCC5)cc4)ccc(F)c32)cc1` [Example 22] yielded an EC50 of 27 nM. For `CCNC(=O)c1ccc(Oc2ccc(F)c3c2CC[C@H]3Oc2ccc([C@H]3C[C@@H]3C(=O)O)cc2)cc1` [Example 23], the EC50 was 12 nM. `N#Cc1ccc(Oc2ccc(F)c3c2CC[C@H]3Oc2ccc([C@H]3C[C@@H]3C(=O)O)cc2)cc1` [Example 24] showed an EC50 of 2 nM. `Cc1cc(C#N)ccc1Oc1ccc(F)c2c1CC[C@H]2Oc1ccc([C@H]2C[C@@H]2C(=O)O)cc1` [Example 25] showed an EC50 of 2 nM. `N#Cc1ccc(Oc2ccc(F)c3c2CC[C@H]3Oc2ccc([C@H]3C[C@@H]3C(=O)O)cc2)c(F)c1` [Example 26] showed an EC50 of 19 nM. With `COc1cc(Oc2ccc(F)c3c2CC[C@H]3Oc2ccc([C@H]3C[C@@H]3C(=O)O)cc2)ccc1C#N` [Example 27] the EC50 was 2 nM. For `N#Cc1ccc(Oc2c(F)cc(F)c3c2CC[C@H]3Oc2ccc([C@H]3C[C@@H]3C(=O)O)cc2)cc1` [Example 28], the EC50 was 1 nM. For `Cn1nnc(-c2ccc(Oc3ccc(F)c4c3CC[C@H]4Oc3ccc([C@H]4C[C@@H]4C(=O)O)cc3)cc2)n1` [Example 29], the EC50 was 3 nM. Work on `CC(C)c1ccn(-c2ccc(Oc3ccc(F)c4c3CC[C@H]4Oc3ccc([C@H]4C[C@@H]4C(=O)O)cc3)cc2)n1` [Example 30] yielded an EC50 of 8 nM. For `Cc1cc(Oc2ccc(F)c3c2CC[C@H]3Oc2ccc([C@H]3C[C@@H]3C(=O)O)cc2)cc(C)c1OCCC(C)(C)O` [Example 31], the EC50 was 9 nM. Compound `Cc1noc(-c2ccc(Oc3ccc(F)c4c3CC[C@H]4Oc3ccc([C@H]4C[C@@H]4C(=O)O)cc3)cc2)n1` [Example 32] has an EC50 of 4 nM. Work on `Cc1nc(-c2ccc(Oc3ccc(F)c4c3CC[C@H]4Oc3ccc([C@H]4C[C@@H]4C(=O)O)cc3)cc2)nn1C` [Example 33] yielded an EC50 of 5 nM. With `CC(C)(O)CNC(=O)c1ccc(Oc2ccc(F)c3c2CC[C@H]3Oc2ccc([C@H]3C[C@@H]3C(=O)O)cc2)cc1` [Example 34] the EC50 was 16 nM. Work on `Cc1nc(-c2ccc(Oc3ccc(F)c4c3CC[C@H]4Oc3ccc([C@H]4C[C@@H]4C(=O)O)cc3)cc2)no1` [Example 35] yielded an EC50 of 3 nM. Compound `Cn1ncc2ccc(Oc3ccc(F)c4c3CC[C@H]4Oc3ccc([C@H]4C[C@@H]4C(=O)O)cc3)cc21` [Example 36] has an EC50 of 2 nM. In the case of `Cc1nc2ccc(Oc3ccc(F)c4c3CC[C@H]4Oc3ccc([C@H]4C[C@@H]4C(=O)O)cc3)cc2s1` [Example 37], the EC50 is reported as 2 nM. Compound `CS(=O)(=O)c1ccc(Oc2ccc(F)c3c2CC[C@H]3Oc2ccc([C@H]3C[C@@H]3C(=O)O)cc2)cc1` [Example 38] has an EC50 of 27 nM. In the case of `Cc1ccc2cc(Oc3ccc(F)c4c3CC[C@H]4Oc3ccc([C@H]4C[C@@H]4C(=O)O)cc3)ccc2n1` [Example 39], the EC50 is reported as 6 nM. `N#Cc1ccc2c(c1Cc1ccc(Cl)nc1)CC[C@H]2Oc1ccc([C@H]2C[C@@H]2C(=O)O)cc1` [Example 40, (1S,2S)-2-{4-[(R)-4-(6-Chloro-pyridin-3-ylmethyl)-5-cyano-indan-1-yloxy]-phenyl}-cyclopropanecarboxylic acid] gave an EC50 of 45 nM. `Cc1cc(C#N)cc(C)c1S(=O)(=O)c1cccc2c1CC[C@H]2Oc1ccc([C@H]2C[C@@H]2C(=O)O)cc1` [Example 41] gave an EC50 of 12 nM. With `Cc1cccc(C)c1S(=O)(=O)c1cccc2c1CC[C@H]2Oc1ccc([C@H]2C[C@@H]2C(=O)O)cc1` [Example 42] the EC50 was 4 nM. With `O=C(O)C1CC1c1ccc(O[C@@H]2CCc3c2cccc3S(=O)(=O)c2ccccc2)cc1` (stereo partly shown) [Example 43] the EC50 was 37 nM. Work on `O=C(O)C1CC1c1ccc(O[C@@H]2CCc3c2cccc3[S+]([O-])c2ccccc2)cc1` (stereo partly shown) [Example 44] yielded an EC50 of 197 nM. Compound `O=C(O)[C@H]1C[C@@H]1c1ccc(O[C@@H]2CCc3c(Oc4ccccc4)ccc(F)c32)cc1` [Example 45, (1S,2S)-2-[4-((R)-7-Fluoro-4-phenoxy-indan-1-yloxy)-phenyl]-cyclopropanecarboxylic acid] has an EC50 of 2 nM. For `COc1ccc(Cc2c(C#N)ccc3c2CC[C@H]3Oc2ccc([C@H]3C[C@@H]3C(=O)O)cc2)cn1` [Example 46, (1S,2S)-2-{4-[(R)-5-Cyano-4-(6-methoxy-pyridin-3-ylmethyl)-indan-1-yloxy]-phenyl}-cyclopropanecarboxylic acid], the EC50 was 8 nM.
